Laboratory results as given in patent EP0899270B1, “Indolylmethyl-N,N'-bisacylpiperazines as neurokinine receptor antagonists” (Solvay Pharmaceuticals GmbH, priority 1997, dated 1999).
Like-named read-outs stand apart in the source and are kept apart here.

Key:
[1] = tested on: durch Substanz P induzierter Blutdrucksenkung; test: Substance P antagonistic effect in vivo (Substanz P induced hypotension in guinea pigs); set-up: species or system Meerschweinchen; details: Cavia porcellus, 1 h, 50 pmol Substanz P i.v., evaluated after 60 minutes, read-out: ED50 (50%ige Hemmung der Substanz P-induzierten Blutdrucksenkung)
From the text: 4. Bestimmung der Substanz-P-antagonistischen Wirkung der Testsubstanzen in vivo.
Zum Nachweis der Substanz-P-antagonistischen Wirkung der Testsubstanzen wurde als Standardtestmodell für Substanz-P-induzierte pharmakologische Effekte die durch Substanz-P-Applikation hervorgerufene Hypotension in Meerschweinchen verwendet. Es wurde die Hemmwirkung der Testsubstanzen gegenüber durch Substanz P induzierter Blutdrucksenkung nach intravenöser (= i.v.) und intraduodenaler (= i.d.) Applikation der Testsubstanzen bestimmt.
Männlichen Meerschweinchen werden in Narkose (Ketamin 67 mg/ kg, Xylazine 13 mg/kg) jeweils ein Katheter in eine Arteria Carotis Communis und in eine Vena Jugularis implantiert. Der arterielle Katheter dient zur Blutdruckmessung. Die Messung erfolgt mit einem Statham 23d/B Druckaufnehmer. Über den venösen Zugang erfolgt die Gabe von Substanz P bzw. bei intravenöser Gabe auch die Applikation der Testsubstanz. Nach einer Äquilibrierungsphase von 20 Minuten werden 50 pmol/Tier Substanz P als Bolus i.v. appliziert. Danach erfolgt die Gabe der Testsubstanz. Bei der i.v. Untersuchung wird die Testsubstanz in Dosierungen von 0.1, 0.46 bzw. 1.0 µmol/kg einer Gruppe von jeweils 4 bis 6 Tieren intravenös appliziert. Die Kontrollgruppe erhält die entsprechende Menge einer physiologischen Kochsalzlösung. […]

NK-1-Rezeptor = biological target: T1, NK-1-Rezeptor (Cavia porcellus, UniProt P30547); test: Functional NK-1 antagonism on isolated guinea pig aorta rings in vitro (inhibition of Substanz P induced tone relaxation); set-up: species or system Pirbright-White Meerschweinchen; details: aorta rings toned with Phenylephrin, stimulated with 0,01 µmol Substanz P; read-out: IC50 (halbmaximale Hemmung der Tonusrelaxation)
T1 construct: Ringpräparaten der Aorta von Pirbright-White Meerschweinchen; from tissue; host or cells: isolated aorta rings of Pirbright-White guinea pigs
From the text: 3. Bestimmung des funktionellen NK-1-Antagonismus der Testsubstanzen an isoliertem Gewebe vom Meerschweinchen in vitro
Die NK-1-Rezeptor-antagonisierende Wirkung der Testsubstanzen wurde an isolierten, in einer oxygenierten Nährlösung gehaltenen Ringpräparaten der Aorta von Pirbright-White Meerschweinchen in vitro gemessen. Bestimmt wird die Hemmung der nach Stimulierung mit dem NK-1-Agonisten Substanz P hervorgerufenen Tonusrelaxation der Aortapräparate durch die Testsubstanzen.
Zur Messung der Kontraktion der Gefäßmuskulatur werden die Präparate an einem Haken fixiert, durch einen Faden mit einem Kraftmessungsgerät verbunden und die Kontraktionen werden jeweils an einem Schreiber registriert. Die Aortapräparate werden mit Phenylephrin tonisiert. Anschließend werden die NK-1-Rezeptoren der Präparate vor und nach der Gabe der Prüfsubstanz mit 0,01 µmol Substanz P stimuliert, wodurch eine Relaxation des Tonus herbeigeführt wird. Die Relaxationen vor und nach Gabe der Prüfsubstanz werden in Prozent quantifiziert. Als Kenngröße wird die Konzentration der halbmaximalen Hemmung (= IC50) errechnet, welche diejenige Konzentration angibt, bei der eine halbmaximale Hemmung der Tonusrelaxation eintritt.
In diesem Testmodell zeigten die in der folgenden Tabelle 2 aufgeführten Beispielsubstanzen die angegebenen IC50-Werte für die halbmaximale Hemmung : Tabelle 2: Funktioneller NK-1-Antagonismus der Testsubstanzen an isoliertem Meerschweinchen-Gewebe

humanen NK-1-Rezeptoren = biological target: T2, humanen NK-1-Rezeptoren (Homo sapiens, UniProt P25103); test: Binding of test substances to NK-1 receptors in vitro ([3H]-Substanz P displacement, CHO cell membranes); details: [3H]-Substanz P as ligand; membranes of CHO cells expressing human NK-1 receptor; Ki calculated from IC50; read-out: Ki-Wert für die Affinität zu humanen NK-1-Rezeptoren
T2 construct: expressed in transfected cells; host or cells: CHO cells (membrane preparation)
From the text: 1. Bestimmung des Bindungsvermögens der Testsubstanzen an NK-1-Rezeptoren in vitro.
Die Affinität der Testsubstanzen zu humanen NK-1-Rezeptoren wird in vitro gemessen. Bestimmt wird die Hemmung der Bindung des physiologischen Neurokinins (Substanz P) an Neurokinin-1-Rezeptoren.
Die Rezeptor-Bindungsstudien werden mit [^3H]-Substanz P als Ligand durchgeführt. Für den Bindungsversuch werden verschiedene Proben einer Membranpräparation von CHO-Zellen (= […] des chinesischen Hamsters, […]), die den humanen NK-1-Rezeptor exprimieren, mit einer Lösung des markierten Liganden inkubiert, wobei die Inkubationsansätze keine Testsubstanz oder Zusätze unterschiedlicher Konzentrationen an Testsubstanz enthalten. Anschließend wird in den Proben jeweils eine Trennung von gebundenem und freiem Liganden mit Hilfe einer Glasfiber-Filtration vorgenommen. Die im Filter verbleibende Fraktion wird mehrmals mit Pufferlösung gewaschen und anschließend wird die Radioaktivität der im Filter verbliebenen Fraktion mit einem Beta-Scintillationszähler gemessen. Es wird als IC50 der jeweiligen Testsubstanz diejenige Konzentration bestimmt, welche eine halbmaximale Verdrängung des gebundenen Liganden bewirkt. Aus dieser wird die entsprechende Inhibitionskonstante (Ki-Wert) der Testsubstanz berechnet. […]

humanen NK-2-Rezeptoren = biological target: T3, humanen NK-2-Rezeptoren (Homo sapiens, UniProt P21452); test: Binding of test substances to NK-2 receptors in vitro (SR 48,968 displacement, CHO cell membranes); details: SR 48,968 as ligand; membranes of CHO cells expressing human NK-2 receptor; read-out: Ki (Affinität der Testsubstanzen zu humanen NK-2-Rezeptoren)
T3 sequence (P21452 1-398): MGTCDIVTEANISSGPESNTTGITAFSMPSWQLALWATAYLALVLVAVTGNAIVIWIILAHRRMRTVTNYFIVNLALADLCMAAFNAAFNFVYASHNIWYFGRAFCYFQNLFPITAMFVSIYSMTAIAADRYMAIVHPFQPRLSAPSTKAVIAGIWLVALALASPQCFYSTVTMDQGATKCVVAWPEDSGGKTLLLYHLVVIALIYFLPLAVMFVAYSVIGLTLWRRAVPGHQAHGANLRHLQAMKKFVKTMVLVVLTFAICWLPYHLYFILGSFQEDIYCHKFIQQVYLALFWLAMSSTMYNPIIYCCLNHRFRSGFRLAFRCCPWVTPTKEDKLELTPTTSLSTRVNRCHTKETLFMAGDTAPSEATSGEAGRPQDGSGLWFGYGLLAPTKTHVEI
From the text: 2. Bestimmung des Bindungsvermögens der Testsubstanzen an NK-2-Rezeptoren in vitro
Die Affinität der Testsubstanzen zu humanen NK-2-Rezeptoren wird in vitro gemessen. Bestimmt wird die Hemmung der Bindung der Verbindung SR-48,968 an NK-2-Rezeptoren. SR-48,968 ist eine als spezifischer NK-2-Antagonist bekannte synthetisch hergestellte Verbindung.
Die Rezeptor-Bindungsstudien werden mit SR 48,968 als Ligand durchgeführt. Die Versuchsdurchführung entspricht der im pharmakologischen Test zur Bestimmung des Bindungsvermögens der Testsubstanzen an NK-1-Rezeptoren in vitro angegebenen Methode. Im Unterschied hierzu werden nunmehr aber verschiedene Proben einer Membranpräparation von CHO-Zellen verwendet, welche den humanen NK-2-Rezeptor exprimieren. In diesem Testmodell zeigten die in der folgenden Tabelle 1 aufgeführten Beispielsubstanzen die angegebenen Ki-Werte für die Affinität zu humanen NK-2-Rezeptoren: Tabelle 1: Affinität der Testsubstanzen zu humanen NK-2-Rezeptoren

T1 sequence (P30547 whole entry): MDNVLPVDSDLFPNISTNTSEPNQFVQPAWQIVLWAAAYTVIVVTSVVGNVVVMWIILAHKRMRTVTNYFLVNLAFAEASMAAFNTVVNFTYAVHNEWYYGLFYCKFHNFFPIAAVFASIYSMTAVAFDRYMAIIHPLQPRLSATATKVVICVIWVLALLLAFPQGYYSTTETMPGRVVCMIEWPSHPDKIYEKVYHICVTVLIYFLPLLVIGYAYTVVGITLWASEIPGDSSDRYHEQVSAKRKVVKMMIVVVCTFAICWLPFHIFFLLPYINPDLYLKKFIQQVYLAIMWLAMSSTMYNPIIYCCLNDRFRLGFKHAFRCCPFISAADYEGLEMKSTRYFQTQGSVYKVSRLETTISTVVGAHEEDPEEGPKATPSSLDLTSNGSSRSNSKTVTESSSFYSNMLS
T2 sequence (P25103 whole entry): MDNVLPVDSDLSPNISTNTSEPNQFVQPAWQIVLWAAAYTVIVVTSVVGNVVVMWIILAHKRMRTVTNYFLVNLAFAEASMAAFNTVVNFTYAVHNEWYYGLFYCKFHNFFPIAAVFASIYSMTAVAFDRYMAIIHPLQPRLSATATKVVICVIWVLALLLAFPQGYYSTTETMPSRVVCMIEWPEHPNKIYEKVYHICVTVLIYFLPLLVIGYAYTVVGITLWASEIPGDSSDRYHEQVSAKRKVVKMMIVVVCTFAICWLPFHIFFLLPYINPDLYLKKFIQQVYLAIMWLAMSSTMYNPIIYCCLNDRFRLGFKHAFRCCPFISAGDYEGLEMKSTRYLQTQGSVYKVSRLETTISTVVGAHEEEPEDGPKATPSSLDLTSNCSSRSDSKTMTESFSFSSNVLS

SMILES: COc1ccccc1CNCCNC(=O)N1CCN(C(=O)c2cc(C(F)(F)F)cc(C(F)(F)F)c2)[C@H](Cc2c[nH]c3ccccc23)C1 [Beispiel 1, (2R)-1-[3,5-Bis(trifluormethyl)benzoyl]-2-(1H-indol-3-ylmethyl)-4-(2-[N-(2-methoxybenzyl)aminoethyl]aminocarbonyl}piperazin]
- ED50 ([1]; i.d.-Applikation): 0.08 µmol/kg
- ED50 ([1]; iv, i.v.-Applikation): 0.2 µmol/kg
- IC50 (NK-1-Rezeptor): 1 nM
- Ki (humanen NK-1-Rezeptoren): 2.1 nM
- Ki (humanen NK-2-Rezeptoren): 60 nM

SMILES: COc1ccccc1CN(C)CCNC(=O)N1CCN(C(=O)c2cc(C(F)(F)F)cc(C(F)(F)F)c2)C(Cc2c[nH]c3ccccc23)C1 (stereo not drawn) [Beispiel 2]
- IC50 (NK-1-Rezeptor): 1.2 nM
- Ki (humanen NK-2-Rezeptoren): 50 nM

SMILES: O=C(NCCNCc1ccc(F)cc1)N1CCN(C(=O)c2cc(C(F)(F)F)cc(C(F)(F)F)c2)C(Cc2c[nH]c3ccccc23)C1 (stereo not drawn) [Beispiel 3]
- IC50 (NK-1-Rezeptor): 1.5 nM
- Ki (humanen NK-2-Rezeptoren): 300 nM
